Measurements reported in ChEMBL document CHEMBL3739376, “Synthesis and biological evaluation of N-(4-phenylthiazol-2-yl)cinnamamide derivatives as novel potential anti-tumor agents” (Medchemcomm, 2015).

Tests used:
[1] = tested on: MDA-MB-468; experiment: Cytotoxicity against human MDA-MB-468 cells assessed as inhibition of cell proliferation after 96 hrs by MTT assay; format: functional, cell-based; conditions: MDA-MB-468, 96 h
[2] = Cytotoxicity against human OCI-LY1 cells assessed as inhibition of cell proliferation after 96 hrs by MTT assay; format: functional, cell-based; conditions: OCI-Ly1, 96 h
[3] = Cytotoxicity against human Bel7402 cells assessed as inhibition of cell proliferation after 96 hrs by MTT assay; format: functional, cell-based; conditions: Bel-7402, 96 h
[4] = tested on: Jurkat; experiment: Cytotoxicity against human Jurkat cells assessed as inhibition of cell proliferation after 96 hrs by MTT assay; format: functional, cell-based
[5] = tested on: Vero; experiment: Cytotoxicity against african green monkey Vero cells assessed as inhibition of cell proliferation after 96 hrs by MTT assay; format: cell-based; conditions: Chlorocebus sabaeus
[6] = tested on: A549; experiment: Cytotoxicity against human A549 cells assessed as inhibition of cell proliferation after 96 hrs by MTT assay; format: functional, cell-based; conditions: A549, 96 h
[7] = tested on: MCF7; experiment: Cytotoxicity against human MCF7 cells assessed as inhibition of cell proliferation after 96 hrs by MTT assay; format: functional, cell-based; conditions: MCF7, 96 h
[8] = tested on: K562; experiment: Cytotoxicity against human K562 cells assessed as inhibition of cell proliferation after 96 hrs by MTT assay; format: functional, cell-based; conditions: K562, 96 h
[9] = Cytotoxicity against human MV411 cells assessed as inhibition of cell proliferation after 96 hrs by MTT assay; format: functional, cell-based; conditions: MV4-11, 96 h
[10] = tested on: HEK293; experiment: Cytotoxicity against HEK293 cells assessed as inhibition of cell proliferation after 96 hrs by MTT assay; format: cell-based; conditions: Homo sapiens, HEK293, 96 h
[11] = Cytotoxicity against human LO2 cells assessed as inhibition of cell proliferation after 96 hrs by MTT assay; format: cell-based; conditions: L02, 96 h

Q: With `Cc1cc(C)c(-c2csc(NC(=O)/C=C/c3ccc(C4CC4)cc3)n2)c(C)c1` as the compound, how does the IC50 [1] read?
A: 15.7 µM

Q: What about the IC50 [2] of the same compound?
A: 1.63 µM

Q: What about the IC50 [3] of the same compound?
A: 6.58 µM

Q: What about the IC50 [4] of the same compound?
A: 1.24 µM

Q: And the IC50 [5]?
A: > 90 µM

Q: And the IC50 [6]?
A: 1.17 µM

Q: And the IC50 [7]?
A: 7.76 µM

Q: And the IC50 [8]?
A: 0.38 µM

Q: And the IC50 [9]?
A: 1.41 µM

Q: And the IC50 [10]?
A: > 90 µM

Q: What about the IC50 [11] of the same compound?
A: > 90 µM

Q: Which results are given for `COc1cc(C)c(-c2csc(NC(=O)/C=C/c3ccc(N4CCOCC4)cc3)n2)c(C)c1`?
A: IC50 [1]: > 30 µM; IC50 [2]: > 30 µM; IC50 [3]: 9.65 µM; IC50 [4]: 1.24 µM; IC50 [5]: > 90 µM; IC50 [6]: 1.56 µM; IC50 [7]: 1.45 µM; IC50 [8]: 1 µM; IC50 [9]: 2.73 µM; IC50 [10]: > 90 µM; IC50 [11]: > 90 µM

Q: With `COc1cccc(-c2csc(NC(=O)/C=C/c3ccc(N4CCOCC4)cc3)n2)c1` as the compound, how does the IC50 [8] read?
A: 25.2 µM

Q: For `COCCOc1ccc(/C=C/C(=O)Nc2nc(-c3c(C)cc(C)cc3C)cs2)cc1`, which IC50 [8] is on record?
A: 1.49 µM

Q: Which IC50 [8] does the source give for `Cc1ccc(/C=C/C(=O)Nc2nc(-c3c(C)cc(C)cc3C)cs2)cc1` here?
A: 7.88 µM

Q: With `Cc1cc(C)c(-c2csc(NC(=O)/C=C/c3ccc(Br)cc3)n2)c(C)c1` as the compound, how does the IC50 [8] read?
A: 4.59 µM

Q: With `O=C(/C=C/c1ccc(N2CCOCC2)cc1)Nc1nc(-c2cccc(F)c2)cs1` as the compound, how does the IC50 [8] read?
A: 5.73 µM

Q: Which IC50 [8] does the source give for `Cc1cc(C)c(-c2csc(NC(=O)/C=C/c3ccc(N4CCCCC4)cc3)n2)c(C)c1` here?
A: 4.06 µM

Q: For `COc1ccc(/C=C/C(=O)Nc2nc(-c3c(C)cc(C)cc3C)cs2)cc1`, which IC50 [8] is on record?
A: 4.16 µM

Q: For `CCOc1ccc(/C=C/C(=O)Nc2nc(-c3c(C)cc(C)cc3C)cs2)cc1`, which IC50 [8] is on record?
A: 2.48 µM

Q: For `Cc1cc(C)cc(-c2csc(NC(=O)/C=C/c3ccc(N4CCOCC4)cc3)n2)c1`, which IC50 [8] is on record?
A: > 90 µM

Q: With `Cc1ccc(-c2csc(NC(=O)/C=C/c3ccc(N4CCOCC4)cc3)n2)cc1` as the compound, how does the IC50 [8] read?
A: > 90 µM

Q: With `O=C(/C=C/c1ccc(N2CCOCC2)cc1)Nc1nc(-c2c(F)cc(F)cc2F)cs1` as the compound, how does the IC50 [8] read?
A: 5.15 µM

Q: With `Cc1cc(C)c(-c2csc(NC(=O)/C=C/c3ccc(F)cc3)n2)c(C)c1` as the compound, how does the IC50 [8] read?
A: 14 µM

Q: For `Cc1cc(C)c(-c2csc(NC(=O)/C=C/c3ccncc3)n2)c(C)c1`, which IC50 [8] is on record?
A: 9.39 µM

Q: Which IC50 [8] does the source give for `O=C(/C=C/c1ccc(N2CCOCC2)cc1)Nc1nc(-c2ccccc2F)cs1` here?
A: 4.18 µM
